Assay results published in ChEMBL document CHEMBL5046251, “Discovery of a Series of Pyrimidine Carboxamides as Inhibitors of Vanin-1” (J Med Chem, 2022).
Activity calls are given as the source filed them. The rule behind the calls is not given here.

Columns and labels:
[1] = Intrinsic clearance in human liver microsomes; format: ADME, Microsome
[2] = Oral bioavailability in mouse; format: ADME, organism-based; settings: in vivo
[3] = tested on: Mus musculus; test: Anti-colitis activity against DSS-induced colitis BALB/c mouse model assessed as effect on colon length at 50 mg/kg, sc measured after 14 days; format: functional, organism-based; settings: time 14.0 day
[4] = Volume of distribution at steady state in mouse; format: ADME, organism-based; settings: in vivo, read-out: Vdss
[5] = target: T1, Pantetheinase (Mus musculus, UniProt Q9Z0K8); test: Inhibition of mouse vanin-1
T1 sequence (Q9Z0K8 whole entry): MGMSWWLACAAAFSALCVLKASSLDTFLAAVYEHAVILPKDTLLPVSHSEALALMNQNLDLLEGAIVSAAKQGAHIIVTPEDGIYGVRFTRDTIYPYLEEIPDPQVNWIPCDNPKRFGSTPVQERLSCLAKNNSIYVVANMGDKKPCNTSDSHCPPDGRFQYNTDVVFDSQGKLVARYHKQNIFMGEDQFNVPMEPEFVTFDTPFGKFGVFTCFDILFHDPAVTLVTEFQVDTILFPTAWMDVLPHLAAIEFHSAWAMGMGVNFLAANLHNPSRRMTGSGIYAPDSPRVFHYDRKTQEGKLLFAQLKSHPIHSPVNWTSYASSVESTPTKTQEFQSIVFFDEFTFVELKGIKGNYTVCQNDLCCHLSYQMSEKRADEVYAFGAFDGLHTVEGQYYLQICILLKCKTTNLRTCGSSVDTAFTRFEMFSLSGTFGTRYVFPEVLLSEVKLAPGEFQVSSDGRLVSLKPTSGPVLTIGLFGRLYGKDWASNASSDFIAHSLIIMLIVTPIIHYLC

[6] = tested on: Mus musculus; test: Anti-colitis activity against DSS-induced BALB/c mouse model assessed as reduction in disease activity index at 50 mg/kg, sc measured on day 8 and 9; format: functional, organism-based; settings: time 8-9 day
[7] = Plasma protein binding in mouse assessed as unbound fraction; format: ADME, cell-free
[8] = Lipophilicity, log D of the compound in Octanol/buffer by shake-flask method
[9] = tested on: Mus musculus; test: Anti-colitis activity against DSS-induced BALB/c mouse model assessed as increase in body weight at 50 mg/kg, sc measured on day 8 and 9; format: functional, organism-based; settings: time 8-9 day
[10] = Total clearance in mouse; format: ADME, organism-based; settings: in vivo
[11] = Apparent intrinsic clearance in mouse liver microsome; format: ADME; settings: liver microsomes, read-out: CLH
[12] = Apparent permeability across apical to basolateral side in RRCK cells; settings: dog, MDCK
[13] = Half life in mouse; format: ADME, organism-based; settings: in vivo
[14] = target: T2, Biotinidase (Homo sapiens, UniProt P43251); test: Inhibition of N-terminal FLAG/His6-tagged human biotinidase expressed in COS cells using biotinyl-7-amino-4-trifluoromethylcoumarin as substrate preincubated for 10 mins followed by substrate addition and measured after 90 mins; format: cell-based
T2 sequence (P43251 whole entry): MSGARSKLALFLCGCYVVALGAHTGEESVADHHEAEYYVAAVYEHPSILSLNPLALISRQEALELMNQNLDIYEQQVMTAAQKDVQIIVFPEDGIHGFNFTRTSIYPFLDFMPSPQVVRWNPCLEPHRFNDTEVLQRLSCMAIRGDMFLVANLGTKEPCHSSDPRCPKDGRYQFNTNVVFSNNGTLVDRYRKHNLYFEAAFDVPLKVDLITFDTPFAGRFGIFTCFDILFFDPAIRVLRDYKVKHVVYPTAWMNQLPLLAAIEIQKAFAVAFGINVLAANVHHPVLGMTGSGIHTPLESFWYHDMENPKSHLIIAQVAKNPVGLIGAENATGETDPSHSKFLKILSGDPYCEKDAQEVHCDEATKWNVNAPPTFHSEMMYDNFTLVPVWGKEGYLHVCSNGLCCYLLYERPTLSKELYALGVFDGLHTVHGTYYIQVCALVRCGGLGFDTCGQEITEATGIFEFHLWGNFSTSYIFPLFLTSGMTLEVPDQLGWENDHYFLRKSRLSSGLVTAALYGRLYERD

[15] = Unbound clearance in mouse; format: ADME, organism-based; settings: in vivo
[16] = Apparent intrinsic clearance in human liver microsome; format: ADME; settings: liver microsomes, read-out: CLH
[17] = target: T3, Pantetheinase (Homo sapiens, UniProt O95497); test: Inhibition of human plasma vanin-1 using pantetheine-7-amino-4-trifluoromethykournarin as substrate preincubated for 30 mins followed by substrate addition; format: cell-free
T3 sequence (O95497 whole entry): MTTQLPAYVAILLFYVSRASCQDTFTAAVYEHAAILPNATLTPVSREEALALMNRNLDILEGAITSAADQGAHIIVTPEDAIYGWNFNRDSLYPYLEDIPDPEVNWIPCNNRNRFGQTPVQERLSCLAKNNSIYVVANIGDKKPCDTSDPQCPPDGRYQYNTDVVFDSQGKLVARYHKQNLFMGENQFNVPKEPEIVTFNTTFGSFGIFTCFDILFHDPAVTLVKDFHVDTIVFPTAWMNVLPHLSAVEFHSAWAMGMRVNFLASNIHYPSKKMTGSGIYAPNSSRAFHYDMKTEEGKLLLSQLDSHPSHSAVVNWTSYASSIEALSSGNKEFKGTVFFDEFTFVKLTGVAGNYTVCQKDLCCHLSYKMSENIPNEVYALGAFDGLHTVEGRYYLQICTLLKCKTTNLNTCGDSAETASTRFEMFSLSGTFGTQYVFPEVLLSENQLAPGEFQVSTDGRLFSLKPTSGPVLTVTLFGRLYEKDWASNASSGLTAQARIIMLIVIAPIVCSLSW

[18] = AUC in mouse at 10 mg/kg, sc measured upto 24 hrs by LC-MS/MS analysis; format: ADME, organism-based; parameters: route subcutaneous, dose 10 mg/kg, time <=24; settings: in vivo
[19] = AUC in rat at 1 mg/kg, iv measured upto 24 hrs by LC-MS/MS analysis; format: ADME, organism-based; parameters: route intravenous, dose 1 mg/kg, time <=24; settings: in vivo
[20] = Intrinsic clearance in human hepatocytes assessed per million cells by relay assay method; format: ADME, cell-based, Hepatocyte
[21] = tested on: Mus musculus; test: Anti-colitis activity against DSS-induced BALB/c mouse model assessed as reduction in disease activity index at 50 mg/kg, po, qd administered for 10 days; format: functional, organism-based; settings: time 10.0 day
[22] = Half life in rat at 1 mg/kg, iv measured upto 24 hrs by LC-MS/MS analysis; format: ADME, organism-based; settings: in vivo
[23] = Unbound drug concentration in serum of DSS-induced BALB/c mouse colitis model at 50 mg/kg administered for 10 days; format: ADME, organism-based; settings: in vivo, 240 h, time 10 day
[24] = Renal clearance in rat at 1 mg/kg, iv assessed glomerular filtration rate; format: ADME, organism-based; settings: in vivo
[25] = Intrinsic clearance in rat hepatocytes assessed per million cells; format: ADME, cell-based, Hepatocyte
[26] = Intrinsic clearance in human hepatocytes assessed per million cells; format: ADME, cell-based, Hepatocyte
[27] = Oral bioavailability in rat at 10 mg/kg measured upto 24 hrs by LC-MS/MS analysis; format: ADME, organism-based; settings: in vivo
[28] = AUC in rat at 10 mg/kg, po measured upto 24 hrs by LC-MS/MS analysis; format: ADME, organism-based; parameters: route oral, dose 10 mg/kg, time <=24; settings: in vivo
[29] = tested on: Mus musculus; test: Anti-colitis activity against DSS-induced BALB/c mouse model assessed as increase in body weight at 50 mg/kg, po, qd administered for 10 days; format: functional, organism-based; settings: time 10.0 day
[30] = Volume of distribution in rat at 1 mg/kg, iv measured upto 24 hrs by LC-MS/MS analysis; format: ADME, organism-based; settings: in vivo
[31] = Clearance in rat at 1 mg/kg, iv measured upto 24 hrs by LC-MS/MS analysis; format: ADME, organism-based; settings: in vivo
[32] = Efflux ratio in human MDR cells; format: ADME, cell-based
[33] = target: T4, Pantetheinase (Homo sapiens) (UniProt O95497); test: Binding affinity to recombinant N-terminal FLAG/His6-tagged human vanin-1 expressed in CHO cells assessed as binding constant (Koff) by surface plasmon resonance analysis
T4 sequence (whole entry): T3 sequence (O95497 whole entry)

[34] = target: T5, Caspase-2 (Homo sapiens, UniProt P42575); test: Inhibition of caspase-2 (unknown origin)
T5 sequence (P42575 whole entry): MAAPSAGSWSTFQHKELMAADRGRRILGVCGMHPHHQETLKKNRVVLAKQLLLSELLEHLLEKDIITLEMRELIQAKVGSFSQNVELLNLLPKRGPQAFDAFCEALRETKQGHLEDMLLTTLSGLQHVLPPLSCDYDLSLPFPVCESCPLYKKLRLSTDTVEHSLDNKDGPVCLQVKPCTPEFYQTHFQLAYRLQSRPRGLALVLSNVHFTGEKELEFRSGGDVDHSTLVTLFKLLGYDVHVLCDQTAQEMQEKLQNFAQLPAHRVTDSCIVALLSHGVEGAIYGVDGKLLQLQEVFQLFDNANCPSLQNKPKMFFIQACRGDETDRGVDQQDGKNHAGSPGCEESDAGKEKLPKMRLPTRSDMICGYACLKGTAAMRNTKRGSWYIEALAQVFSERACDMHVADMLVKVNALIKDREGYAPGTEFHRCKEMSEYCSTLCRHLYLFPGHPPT

[35] = Plasma protein binding in human assessed as unbound fraction; format: ADME, cell-free
[36] = Clearance in rat; format: ADME; settings: in vivo
[37] = target: T6, Caspase-1 (Homo sapiens, UniProt P29466); test: Inhibition of caspase-1 (unknown origin)
T6 sequence (P29466 whole entry): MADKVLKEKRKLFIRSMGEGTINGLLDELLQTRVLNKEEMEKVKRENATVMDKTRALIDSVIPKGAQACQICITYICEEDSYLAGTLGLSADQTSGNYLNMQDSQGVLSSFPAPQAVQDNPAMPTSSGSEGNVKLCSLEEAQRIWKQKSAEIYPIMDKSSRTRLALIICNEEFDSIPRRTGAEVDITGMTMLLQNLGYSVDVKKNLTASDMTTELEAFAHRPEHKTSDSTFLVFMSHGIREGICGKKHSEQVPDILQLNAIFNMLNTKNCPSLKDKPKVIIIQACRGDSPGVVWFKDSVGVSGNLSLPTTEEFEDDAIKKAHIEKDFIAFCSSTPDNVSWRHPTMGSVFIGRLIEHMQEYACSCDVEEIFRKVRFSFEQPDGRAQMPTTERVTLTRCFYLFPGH

[38] = target: T4, Pantetheinase (Homo sapiens); test: Binding affinity to recombinant N-terminal FLAG/His6-tagged human vanin-1 expressed in CHO cells assessed as binding constant (Kon) by surface plasmon resonance analysis
[39] = target: T3, Pantetheinase; test: Binding affinity to recombinant N-terminal FLAG/His6-tagged human vanin-1 expressed in CHO cells assessed as dissociation constant by surface plasmon resonance analysis
[40] = Oral bioavailability in rat; format: ADME, organism-based; settings: in vivo
[41] = Volume of distribution at steady state in rat; format: ADME; settings: in vivo, read-out: Vdss
[42] = target: T7, Caspase-3 (Homo sapiens, UniProt P42574); test: Inhibition of caspase-3 (unknown origin)
T7 sequence (P42574 whole entry): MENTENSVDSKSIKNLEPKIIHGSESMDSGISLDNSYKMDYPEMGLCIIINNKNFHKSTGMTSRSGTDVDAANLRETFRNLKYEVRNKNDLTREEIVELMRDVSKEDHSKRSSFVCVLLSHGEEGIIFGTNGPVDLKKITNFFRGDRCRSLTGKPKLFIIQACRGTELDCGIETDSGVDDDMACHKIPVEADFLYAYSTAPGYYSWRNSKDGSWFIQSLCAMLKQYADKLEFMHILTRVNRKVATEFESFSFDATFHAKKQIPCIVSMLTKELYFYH

[43] = target: T3, Pantetheinase; test: Inhibition of recombinant N-terminal FLAG/His6-tagged human vanin-1 expressed in CHO cells at 10 uM by 1H NMR analysis; format: cell-based
[44] = Half life in rat; format: ADME; settings: in vivo

## N#Cc1cccc(C(=O)c2cnc(NC3(c4cncnc4)CC3)nc2)c1
[1]
  Intrinsic clearance: 14 µL/min/mg
[2]
  bioavailability: 29%
[3]
  Activity: Active
[4]
  Vd: 1.1 L/kg
[5]
  IC50: 4.8 nM
[6]
  Activity: Active
[7]
  fraction unbound: 0.0046
[8]
  logD: 1.2
[9]
  Activity: Active
[10]
  clearance: 29 mL/min/kg
[11]
  CLint scaled: 39 mL/min/kg
[12]
  Papp A→B: 27 ×10⁻⁶ cm/s
[13]
  half-life: 60 min
[14]
  IC50: 24000 nM
[15]
  CL free: 49 mL/min/kg
[16]
  CLint scaled: 14 mL/min/kg
[17]
  IC50: 12 nM

## C[C@H](Nc1ncc(C(=O)N2CCC3(CCOCC3)C2)cn1)c1cnccn1
[18]
  AUC at 24 h: 6590 ng·h/mL
[1]
  Intrinsic clearance: < 8 µL/min/mg
[19]
  AUC at 24 h: 616 ng·h/mL
[20]
  CLint: 0.25 µL/min/1e6 cells
[21]
  Activity: Active
[22]
  half-life: 48 min
[5]
  IC50: 0.56 nM
[23]
  Ct: 2852 nM
[24]
  CL: 25%
[25]
  CLint: 6 µL/min/1e6 cells
[26]
  CLint: < 3 µL/min/1e6 cells
[8]
  logD: 0.4
[27]
  bioavailability: 37%
[28]
  AUC at 24 h: 2250 ng·h/mL
[29]
  Activity: Active
[12]
  Papp A→B: 14 ×10⁻⁶ cm/s
[30]
  Vd: 0.98 L/kg
[14]
  IC50: 2800 nM
[31]
  clearance: 30 mL/min/kg

## O=C(c1cnc(NC2(c3cncnc3)CC2)nc1)N1CCCCC1
[1]
  Intrinsic clearance: < 10 µL/min/mg
[32]
  efflux ratio: 3.2
[33]
  K: 0.52 s⁻¹
[34]
  IC50: > 10000 nM
[5]
  IC50: 10.2 nM
[25]
  CLint: 45 µL/min/1e6 cells
[35]
  fraction unbound: 0.00918
[26]
  CLint: 11 µL/min/1e6 cells
[8]
  logD: 0.7
[36]
  clearance: 88 mL/min/kg
[37]
  IC50: > 10000 nM
[38]
  K: 8.1 10^7/M/s
[12]
  Papp A→B: 9.5 ×10⁻⁶ cm/s
[39]
  Kd: 20 nM
[40]
  bioavailability: 11%
[41]
  Vd: 1.1 L/kg
[14]
  IC50: 18000 nM
[42]
  IC50: > 10000 nM
[43]
  IC50: 115 nM
[44]
  half-life: 9 min
